Article PMC11984388, “A brain-accessible peptide modulates stroke inflammatory response and neurotoxicity by targeting BDNF-receptor TrkB-T1 specific interactome” (Theranostics, 2025)
Residues, ends and D or L forms follow the SMILES beside them. *: point of attachment. Biotin = O=C1N[C@H]2[C@H](CS[C@H]2CCCCC(=O)*)N1

What was measured:
[1] = Peptide delivery to brain cortex of undamaged animals; format: in vivo; settings: 3 nmol/g i.v. (retro-orbital), undamaged male mice, sacrificed 30 min after; Fluorescein Avidin D (Fig S5)
Experimental: (§1) Vehicle (saline), Bio-TMyc or Bio-TT1Ct (3 nmol/g) were retro-orbitally injected in mice one hour after induction of photothrombotic damage or, alternatively, undamaged animals. In the first case, animals were sacrificed 5 h after damage induction while, the second group was sacrificed 30 min after peptide administration. The details of brain fixation and cryoprotection for peptide visualization and/or immunohistochemistry are provided in the Supplementary material. […]
(§2) Finally, the sa mple s were mounted in Prolong Diamond. The images were acquired using an inverted Zeiss LSM 710 laser confocal microscope (Jena, Germany) with a 40x or 63x Plan-Apochromatic oil immersion objective. Images corre spond to single se ctions and were normalized for eac h colour se para tely and process ed for presenta tion with ImageJ (NIH Image) and Fiji.
(§3) Peptide visualization and immunohistochemis tr y in brain cortex
(§4) For peptide visua liz ation in undamaged or damaged brains, animals were deeply anes thetized and intra cardially perfus ed with cold PBS and 4% paraformalde hyde in PBS. Brains were post-fixed in the sa m e fixative at 4°C for 24 h and cryoprote cted in 30% suc ros e for 48 h at 4°C. […]

[2] = Peptide detection in brain cortex after photothrombotic ischemia; format: in vivo; settings: 3 nmol/g i.v. 1 h after damage, male and female mice sacrificed 5 h post-stroke; Fluorescein Avidin D (Fig 5C)
Experimental: as §1, §2, §3, §4

[3] = system: neurons of primary cortical cultures; assay: Neuronal viability (MTT) under NMDA excitotoxicity; format: cell-based, rat
Experimental: Cultures were prepared from cerebral cortex of 18-day-old Wistar rat embryos, both genders indistinctly included. Unless otherwise indicated, glial growth was inhibited after 7 days in vitro (DIVs), experimental treatments taking place after 12 DIVs. These cultures present a high percentage of neurons, combined with glial cells, mostly astrocytes. To induce excitotoxicity, cultures were incubated with NMDA (100 µM) and its co-agonist glycine (10 µM), herein denoted simply as NMDA, which induce a strong excitotoxic response in mature neurons but have no effect on astrocyte viability,[47]. When indicated, cultures were preincubated for 30 min with indicated concentrations of Tat-derived CPPs before NMDA treatment, peptides being kept in the medium along treatment. Total cell or neuronal viability assessment was established by the thiazolyl blue formazan (MTT) reduction assay. Further details are provided as Supplementary material. […]
(§5) skull for 10 min. Br ain injury encompas se s damage to vas cular endothelium, platelet activation, and subs equent microvascula r thrombotic occlus ion of the irradiate d region. The ar eas underneath this ste reotaxic position that result irradiate d ar e the prima ry motor cortex and the prima ry soma tos ens ory cortex (hindlimb and forelimb). Once completed surgery, the incision was sutured, and mice were allowed to recover.
For neuroprote ction experiments, a single dose (3 nmol/g) of peptides TMyc or TT1Ct (> 95% purity; GenScript), solubilized as 2.5 mM solutions in 0.9% NaC l, we retro-orbita lly injected 1 h af ter damage initiation. In order to improve their plas ma sta bility, thes e peptides ar e N- and C-ter modifie d by, respec tive ly, ace tyl and amide groups. Mi c e were not subje cted to other procedures before isc hemia and were naive to drug or peptide treatment. Animals were randomly allocated to the experimental groups and the resea rc hers doing the experiments were blind respec t to treatment. There was not a previous es tima tion of sa mple si z e and experiments were independently car r ied out as indicated. Twenty-four hours af ter damage induction, animals completed the beam walking test and were subs equently sa cri f i ced by cervical disloca tion to meas ure the infarc t volume, as indicated below. Be fore that, brains were se ctioned into se ri al 1-mm-thick coronal sl i ce s using a mouse brain matrix (Stoe lting, Wood Dale, IL, USA), and se ctions were completely sta ine d with 2% TTC at room temperature to visua liz e the cortical infarc ts . For immunohistochemis try, animals were deeply anes thetized 5 or 24 h af ter brain damage and intra cardially perfus ed with cold PBS and 4% paraformalde hyde in PBS as indicated below.
Primary cultures of rat cor tic al neurons to study in vitro excitotoxicity The diss ected cerebral cortices of Wis ta r rat embryos (E18), both genders included, were mechanic ally diss ociated in culture medium (Minimum Esse ntia l Me dium, ME M, Life Technologies) follow ed by se eding of the cell sus pens ion at a dens ity of 1.1x10^6 cells /ml, prepared in the sa m e medium supple me nted with 22.2 mM glucos e, 0.1 mM glutamax, 5% foetal bovine se rum (FBS), 5% donor horse se rum (HS), 100 U/ml penicillin and 100 µg/ml streptomycin. Be fore se eding, the plates were treated overnight at 37°C with 100 µg/ml poly-L-lysine and 4 µg/ml laminin. The cells were incubated at 37°C in an atmosphe re of 5% CO2 and 95% humidity. Generally, glial growth was inhibited af ter 7 days in vitro (DIV s) by adding 10 µM 5 cytos ine β-D-arabinofuranos ide (AraC) and experimental treatments took place af ter 12 DIVs. Excitotoxicity was induced by incubation with NM DA (100 µM) and glycine (10 µM) for the indicated times. As indicated, cultures were preincubated with Tat-derived CP P s before […]
Mi c e had to walk through a narrow beam (1 m × 1 cm × 1 cm) placed 50 cm above the tabletop, going from an aversive stimulus (60-W light bulb) to a black goal box with nes ting material. […]

[4] = Infarct volume after photothrombotic permanent ischemia; format: in vivo, mice; settings: 24 h, TTC, relative to hemisphere volume
Experimental: Permanent focal ischemia was induced in cerebral cortex of adult male and female mice by microvascular photothrombosis as described with modifications. Brain injury involves vascular endothelium damage and platelet activation, followed by microvascular thrombotic occlusion of a particular region selected for illumination using a stereotaxic frame. Coordinates were +0.2 AP, +2 ML relative to Bregma and damaged area corresponded to primary motor and somatosensory cortex. For neuroprotection, a single dose (3 nmol/g) of peptides TMyc or TT1Ct (see below) was administered 1 h after damage initiation. Further details of the procedures, including measurement of infarct volume and evaluation of motor coordination and balance, are detailed as Supplementary material.
Antibodies, chemica ls and recombinant proteins, cell-penetrating peptides , prime rs , commercial as says , experimental models, recombinant DNAs and software ar e des cribe d in the Table S1, included as Supplementary material.
Animal procedures were performed follow ing Europea n Union Directive 2010/63/ EU and were approved by the CS I C and Comunidad de Ma drid (Ref PROEX 276.6/20) ethics committees.
Hous ing facilities were approved by Comunidad de Ma drid (#ES 280790000188) and conform to official regulations. Animals had sta ndard health and immune sta tus and were looked af ter by profes sional caretake rs daily. Ma l e and female mice were kept in groups of up to five in sta ndard IVC cage s while 1–2 pregnant rats occupied sta ndard cage s, always containing bedding and nes ting materials. Animals were under controlled lighting conditions (12 h light cycles ), relative humidity and temperature. Irradiated food and water were provided ad libitum.
We trie d to minimiz e animal suffering and reduce the number of sa cri f i ced animals .
Mi c e model of isc he mia by microv ascular photothr ombosis to study in vivo excitotoxicity This model of permanent focal isc hemia mimics embolic or thrombotic occlus ion of sm a ll ar ter ie s, which is freque ntly found in human stroke, and caus es a focal brain damage with histological and MR I corre lations to human patterns. The procedure was as previously des cribe d with some modific ations . Ma l e and female Ba lb/c OlaHsd mice (23–31 g; 10–16 weeks of age; Envigo Rms , Spain S.L.) were allowed to acc limatize to our facilities for at least 1 week af ter delivery, before isc hemic induction. They were kept with the sa m e cage mates, and daily examined to chec k their health sta tus . Mi c e were anes thetized with isoflurane (5% for induction, 2% for maintenance in oxygen; Abbot Labora tories , Ma drid, Spain) and then placed in a ste reotaxic frame (Naris hige Group, Tokyo, Ja pan). Body temperature was maintained at 36–37°C using a se l f-regulating heating blanket (Cibertec, Ma drid, Spain). A midline sc al p incision was made, the skull was expos ed, and both Bregma and Lambda points were identifie d.
A cold- light (Sc hott KL 2500 LCD; Schott Glas s, Ma inz, Germany) with a fibre optic bundle of 1.5 mm in diameter was centred using a micromanipula tor on the right side , at 0.2 mm anterior and 2.0 mm lateral (+0.2 AP, +2 ML ) relative to Bregma. […] Five minutes later, the brain was illumina ted (600 lms, 3,000 K) through the intact […]
as §5, with “recover. […]” for “recover.”

[5] = Beam walking test after photothrombotic ischemia; format: in vivo, mice; settings: contralateral hind paw slips, beam walking 24 h after insult, 3 nmol/g i.v. 1 h after damage, mean ± SEM, n = 10-12

Q: For `CC[C@H](C)[C@H](NC(=O)[C@H](CCCCN)NC(=O)[C@H](Cc1c[nH]cn1)NC(=O)[C@H](Cc1ccccc1)NC(=O)[C@H](CC(C)C)NC(=O)[C@@H](NC(=O)[C@H](Cc1ccccc1)NC(=O)[C@@H]1CCCN1C(=O)[C@@H]1CCCN1C(=O)[C@H](CCCNC(=N)N)NC(=O)[C@H](CCCNC(=N)N)NC(=O)[C@H](CCCNC(=N)N)NC(=O)[C@H](CCC(N)=O)NC(=O)[C@H](CCCNC(=N)N)NC(=O)[C@H](CCCNC(=N)N)NC(=O)[C@H](CCCCN)NC(=O)[C@H](CCCCN)NC(=O)[C@H](CCCNC(=N)N)NC(=O)CNC(=O)[C@H](Cc1ccc(O)cc1)NC(=O)CCCC[C@@H]1SC[C@@H]2NC(=O)N[C@@H]21)C(C)C)C(=O)N1CCC[C@H]1C(=O)N[C@@H](CC(C)C)C(=O)N[C@@H](CC(=O)O)C(=O)NCC(N)=O` [Bio-TT1Ct] (Biotin-YGRKKRRQRRRPPFVLFHKIPLDG-NH2), which “Crossing of the BBB and delivery to cortical cells” value [1] is on record?
A: The value was “able to cross the BBB and efficiently reach most cortical cells in 30 min”.

Q: What about the “Time of peptide detection in brain cortex after administration” value [2] of the same molecule?
A: The value was “at least 4 h”.

Q: For “Ac-YGRKKRRQRRRAEEQKLISEEDLLR-NH2 [TMyc, reference compound]”, which Neuronal viability ([3]; CPPs 0: peptide and NMDA (100 µM) at the same time, viability after 4 h of excitotoxicity, relative to untreated cells (100%), mean, n = 4-8 (Fig S4)) is on record?
A: The Neuronal viability was 36%.

Q: What about the Neuronal viability ([3]; CPPs 30: peptide added 30' post-NMDA (100 µM), viability after 4 h of excitotoxicity, relative to untreated cells (100%), mean, n = 4-8 (Fig S4)) of the same molecule?
A: Its Neuronal viability is 37%.

Q: What about the Neuronal viability ([3]; CPPs 60: peptide added 60' post-NMDA (100 µM), viability after 4 h of excitotoxicity, relative to untreated cells (100%), mean, n = 4-8 (Fig S4)) of the same molecule?
A: Its Neuronal viability is 37%.

Q: And the Neuronal viability ([3]; dose-response experiment (Fig 3B): peptide 15 µM preincubated 30 min, NMDA 2 h, mean ± SEM, n = 8)?
A: Its Neuronal viability is 13 ± 9%.

Q: And the “Infarct volume (%)” value ([4]; female mice, 3 nmol/g i.v. 1 h after damage, mean, n = 9-10)?
A: The value was 15 ± 2%.

Q: And the “Infarct volume (%)” value ([4]; male + female mice, 3 nmol/g i.v. 1 h after damage induction, mean ± SEM, n = 19, n = 20)?
A: The value was 17 ± 2%.

Q: What about the “Infarct volume (%)” value ([4]; male mice, 3 nmol/g i.v. 1 h after damage, mean, n = 9-10) of the same molecule?
A: The value was 20 ± 1%.

Q: And the Number of slips ([5]; female mice)?
A: Its Number of slips is 5 ± 1.

Q: And the Number of slips ([5]; male mice)?
A: The Number of slips was 10 ± 1.
